Data reported in US10975037B2 (priority 2018, dated 2021).
Like-named read-outs stand apart in the source and are kept apart here.

Columns and labels:
RORγT = RORγT (Mus musculus (Mouse), UniProt P51450); conditions: mice; cited from earlier work
[1] = biological target: human RORγt ligand binding domain (RORγt LBD) (Homo sapiens (Human), UniProt P51449); assay: RORγt ThermoFluor® assay (thermal shift binding)
Method in brief: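 Thermal shift with 0.065 mg/mL RORγt LBD and 60 μM 1,8-ANS in 100 mM Hepes pH 7.0, 10 mM NaCl, 2.5 mM GSH, 0.002% Tween-20.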

full-length human RORγt = full-length human RORγt (Homo sapiens (Human), UniProt P51449); assay: RORγt (full-length human) reporter assay, conditions A or B, HEK293T cells; type: cell-based; conditions: for IC50: RORγt (FL) Reporter Assay A or B, IC50, HEK293T cells
Method in brief: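 After 16–20 h, dual firefly/Renilla luciferase luminescence was read. Firefly signal was normalized to DMSO and saturating reference compound, then to Renilla, and fitted for IC50; % inhibition is versus DMSO.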

[2] = test system: IL-17 production by CD4 T cells under conditions which favor Th17 differentiation; assay: Human Th17 assay (IL-17 production by CD4 T cells); type: cell-based; conditions: Homo sapiens, CD4+ T; read-out: Human Th17 Assay, IC50
Method: The human Th17 assay tests the effect of RORγt modulatory compounds on IL-17 production by CD4 T cells under conditions which favor Th17 differentiation. Total CD4^+ T cells were isolated from the peripheral blood mononuclear cells (PBMC) of healthy donors using a CD4^+ T cell isolation kit II, following the manufacturer's instructions (Miltenyi Biotec). […] 50 μL of compound at titrated concentrations in DMSO were added into each well at final DMSO concentration at 0.2%. Cells were incubated for 1 hour, then 50 μL of Th17 cell differentiation medium was added to each well. […] Cells were cultured at 37° C. and 5% CO2 for 3 days. Supernatants were collected and the accumulated IL-17 in culture was measured by using MULTI-SPOT® Cytokine Plate following manufacture's instruction (Meso Scale Discovery). The plate was read using Sector Imager 6000, and IL-17 concentration was extrapolated from the standard curve. The IC50s were determined by GraphPad.

[3] = read-out: ThermoFluor® Assay, Kd

Sequence of full-length human RORγt (P51449 other isoform, or with tags, fused parts or gaps): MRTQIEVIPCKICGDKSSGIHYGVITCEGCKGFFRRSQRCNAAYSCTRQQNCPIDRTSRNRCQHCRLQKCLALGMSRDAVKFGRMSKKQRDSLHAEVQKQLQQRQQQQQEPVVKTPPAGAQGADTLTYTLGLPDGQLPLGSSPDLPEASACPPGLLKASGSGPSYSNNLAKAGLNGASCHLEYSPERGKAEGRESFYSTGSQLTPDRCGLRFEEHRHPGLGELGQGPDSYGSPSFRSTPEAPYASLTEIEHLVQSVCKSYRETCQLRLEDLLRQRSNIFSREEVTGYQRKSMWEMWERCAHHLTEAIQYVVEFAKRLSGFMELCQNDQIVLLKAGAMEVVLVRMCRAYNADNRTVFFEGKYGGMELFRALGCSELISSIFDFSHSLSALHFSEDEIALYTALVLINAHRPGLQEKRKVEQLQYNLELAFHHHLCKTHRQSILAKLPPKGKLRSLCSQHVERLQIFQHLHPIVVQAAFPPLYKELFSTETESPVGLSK
Sequence of human RORγt ligand binding domain (RORγt LBD) (P51449 other isoform, or with tags, fused parts or gaps): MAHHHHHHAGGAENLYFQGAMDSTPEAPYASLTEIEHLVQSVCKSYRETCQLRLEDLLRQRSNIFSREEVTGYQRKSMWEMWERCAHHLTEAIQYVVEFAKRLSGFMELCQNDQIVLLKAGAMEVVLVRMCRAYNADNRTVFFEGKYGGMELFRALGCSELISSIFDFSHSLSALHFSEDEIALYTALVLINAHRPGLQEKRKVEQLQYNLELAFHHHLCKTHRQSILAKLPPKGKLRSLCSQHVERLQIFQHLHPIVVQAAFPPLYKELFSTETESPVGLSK
Sequence of RORγT (P51450 other isoform, or with tags, fused parts or gaps): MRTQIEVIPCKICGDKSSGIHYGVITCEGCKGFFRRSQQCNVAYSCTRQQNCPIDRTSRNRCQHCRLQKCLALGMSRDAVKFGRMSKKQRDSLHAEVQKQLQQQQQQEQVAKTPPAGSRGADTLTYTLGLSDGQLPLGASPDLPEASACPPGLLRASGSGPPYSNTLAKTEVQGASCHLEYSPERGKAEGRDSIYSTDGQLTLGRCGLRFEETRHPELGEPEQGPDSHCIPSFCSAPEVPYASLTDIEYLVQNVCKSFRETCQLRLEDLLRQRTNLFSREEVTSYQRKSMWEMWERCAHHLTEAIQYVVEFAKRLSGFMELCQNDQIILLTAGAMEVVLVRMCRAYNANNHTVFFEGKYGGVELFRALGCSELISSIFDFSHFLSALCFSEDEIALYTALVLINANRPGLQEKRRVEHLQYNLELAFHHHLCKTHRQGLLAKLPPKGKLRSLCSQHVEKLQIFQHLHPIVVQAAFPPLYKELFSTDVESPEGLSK

| Compound | Th17-dependent learned helplessness (RORγT) | Kd [1, 3] [nM] | inhibition at […] (full-length human RORγt; HEK-293T, 0.22 μM compound concentration (footnote *******), read-out: RORγt (FL) Reporter Assay A or B, % inhibition) [%] | IC50 (full-length human RORγt) [nM] | IC50 [2] [nM] | inhibition at 2 µM (full-length human RORγt; HEK-293T, read-out: RORγt (FL) Reporter Assay A or B, % inhibition) [%] | Kd ([1]; ThermoFluor® Assay, Kd) [nM] | inhibition at 1 µM (full-length human RORγt; HEK-293T, 1 μM compound concentration (footnote ***), read-out: RORγt (FL) Reporter Assay A or B, % inhibition) [%] |
| --- | --- | --- | --- | --- | --- | --- | --- | --- |
| CC(=O)Nc1nc(C)c(S(=O)(=O)Nc2ccc(C(O)(C(F)(F)F)C(F)(F)F)cc2)s1 [SR1001] | reduced Th17-dependent learned helplessness |  |  |  |  |  |  |  |
| CCn1nc(C(=O)NC[C@]2(O)CC[C@@H](S(C)(=O)=O)CC2)c(C)c1-c1ccc(CC(C)(C)C(F)(F)F)cc1OC(F)F [Example 143, 5-(2-(Difluoromethoxy)-4-(3,3,3-trifluoro-2,2-dimethylpropyl)phenyl)-1-ethyl-N-(((1s,4s)-1-hydroxy-4-(methylsulfonyl)cyclohexyl)methyl)-4-methyl-1H-pyrazole-3-carboxamide] |  | 0.37 | 101 | 7.3 | 10 |  |  |  |
| CCn1nc(C(=O)NC[C@]2(C#N)CC[C@@H](S(C)(=O)=O)CC2)c(Cl)c1-c1ccc(N[C@H](C)C(F)(F)F)cc1OC [Example 32, 4-Chloro-N-(((1s,4S)-1-cyano-4-(methylsulfonyl)cyclohexyl)methyl)-1-ethyl-5-(2-methoxy-4-(((R)-1,1,1-trifluoropropan-2-yl)amino)phenyl)-1H-pyrazole-3-carboxamide] |  | 7.6 |  | 53 | 62 | 96 |  |  |
| CCn1nc(C(=O)NC[C@]2(O)CC[C@@H](S(C)(=O)=O)C[C@H]2O)c(Cl)c1-c1ccc(C[C@H](C)C(F)(F)F)cc1OC(F)F (stereo in doubt) [Example 53, 4-Chloro-5-(2-(difluoromethoxy)-4-((S*)-3,3,3-trifluoro-2-methylpropyl)phenyl)-N-(((1R*,2R*,4R*)-1,2-dihydroxy-4-(methylsulfonyl)cyclohexyl)methyl)-1-ethyl-1H-pyrazole-3-carboxamide] |  |  |  | 6.3 | 13 |  | 1.6 | 99 |
